The target of this test is Mast/stem cell growth factor receptor Kit (Homo sapiens, UniProt P10721). Put plainly: c-KIT Kinase Assay. As for the experimental part: Kinase Reaction: The kinase assay was based on the recommended protocol by c-KIT Kinase Enzyme System from Promega. Recombinant human c-KIT kinase in 3 μL of assay buffer (40 mM Tris pH 7.5, 20 mM MgCl2, 0.1 mg/mL BSA and 50 μM DTT) was added to the test or high control wells and 3 μL of assay buffer was added to the low control wells. The microplate was centrifuged at 800 rotations per minute (rpm) for 60 s and incubated at room temperature (RT) for 30 min. Next, 2 μL of buffered ATP and polyEY substrate solution was added to all wells. The microplate was centrifuged at 800 rpm for 60 s and incubated at RT for 2 h. […] ADP detection with ADP-Glo™ Kinase Assay: After the kinase reaction incubation, 5 μL of ADP-Glo™ reagent was added to all wells. The microplate was centrifuged at 800 rpm for 60 s and incubated at RT for 40 min. Ten microliter (10 μL) of Kinase Detection Reagent (Luciferin-Luciferase system) was then added to all wells. The microplate was centrifuged at 800 rpm for 60 s and incubated at RT for 60 min. Kinase activity was measured as increase in luminescence at RT in an Envision plate reader equipped with 560 nm filters and operating in endpoint mode.

Molecules are shown by their SMILES. A value given as a limit tells only on which side of the number the result lay.

Sequence of Mast/stem cell growth factor receptor Kit (P10721 whole entry): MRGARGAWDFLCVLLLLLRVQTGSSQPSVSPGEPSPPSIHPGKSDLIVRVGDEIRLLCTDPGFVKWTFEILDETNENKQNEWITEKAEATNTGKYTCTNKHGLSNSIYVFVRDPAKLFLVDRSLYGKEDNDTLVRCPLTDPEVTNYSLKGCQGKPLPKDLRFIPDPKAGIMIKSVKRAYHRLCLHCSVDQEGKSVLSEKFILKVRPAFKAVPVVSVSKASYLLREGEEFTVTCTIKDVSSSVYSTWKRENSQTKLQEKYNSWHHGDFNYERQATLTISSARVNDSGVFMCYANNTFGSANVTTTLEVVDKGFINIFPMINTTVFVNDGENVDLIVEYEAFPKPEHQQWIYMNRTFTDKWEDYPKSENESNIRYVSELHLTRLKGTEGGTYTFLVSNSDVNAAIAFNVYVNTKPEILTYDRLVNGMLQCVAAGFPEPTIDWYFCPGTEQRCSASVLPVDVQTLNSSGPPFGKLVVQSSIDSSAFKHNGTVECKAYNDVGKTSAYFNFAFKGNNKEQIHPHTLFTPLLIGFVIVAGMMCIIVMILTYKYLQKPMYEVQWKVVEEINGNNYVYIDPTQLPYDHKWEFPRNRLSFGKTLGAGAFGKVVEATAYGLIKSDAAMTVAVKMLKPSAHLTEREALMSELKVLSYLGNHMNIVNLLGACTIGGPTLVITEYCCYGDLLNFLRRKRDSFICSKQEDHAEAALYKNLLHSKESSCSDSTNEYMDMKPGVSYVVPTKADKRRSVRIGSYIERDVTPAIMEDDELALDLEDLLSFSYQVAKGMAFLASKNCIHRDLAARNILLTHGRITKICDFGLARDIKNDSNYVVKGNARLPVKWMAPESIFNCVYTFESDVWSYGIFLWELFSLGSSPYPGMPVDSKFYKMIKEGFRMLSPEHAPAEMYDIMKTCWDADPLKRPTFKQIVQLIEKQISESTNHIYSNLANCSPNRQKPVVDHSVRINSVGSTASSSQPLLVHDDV

On to `Cc1ccc(-c2noc(C3C[C@@H]3F)n2)cc1NC(=O)c1cnn2ccc(-c3cnn(C(F)F)c3)cc12` (stereo partly drawn) [US20250059174, Example 2a], for which the IC50 (commonly the concentration that inhibits the measured activity by half) is less than 0.1 µM. The figure for `Cc1ccc(-c2noc([C@H]3C[C@@H]3F)n2)cc1NC(=O)c1cnc(N2CC(C(=O)O)C2)s1` [US20250059174, Example 98-4] is more than 1 µM; for `Cc1ccc(-c2noc(C3C[C@@H]3F)n2)cc1NC(=O)c1cnn2ccc(N3C[C@H](CS(C)(=O)=O)[C@@H]3C)cc12` (stereo partly drawn) [US20250059174, Example 172] it is less than 0.1 µM.

(Values after BindingDB's records for patent US20250059174 (Enanta Pharmaceuticals, 2025).)
